Data published in paper doi:10.1101/2021.09.28.462154v2 (biorxiv, 2022).
pEC50: −log10 of the molar value.

Experiments:
OR5AN1 = target: T1, OR5AN1 (Homo sapiens, UniProt Q8NGI8); test: cAMP accumulation; type: biochemical
T1 sequence (Q8NGI8 1-311): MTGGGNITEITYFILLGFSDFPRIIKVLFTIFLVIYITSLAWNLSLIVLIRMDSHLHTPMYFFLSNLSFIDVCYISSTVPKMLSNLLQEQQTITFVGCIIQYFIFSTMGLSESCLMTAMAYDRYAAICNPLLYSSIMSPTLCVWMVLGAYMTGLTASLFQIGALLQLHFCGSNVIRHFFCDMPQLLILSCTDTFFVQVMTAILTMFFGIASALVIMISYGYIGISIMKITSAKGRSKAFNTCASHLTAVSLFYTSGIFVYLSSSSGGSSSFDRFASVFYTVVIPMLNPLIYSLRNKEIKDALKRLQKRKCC

OR1A1 = target: T2, OR1A1 (Homo sapiens, UniProt Q9P1Q5); test: cAMP accumulation; type: biochemical
T2 sequence (Q9P1Q5 1-309): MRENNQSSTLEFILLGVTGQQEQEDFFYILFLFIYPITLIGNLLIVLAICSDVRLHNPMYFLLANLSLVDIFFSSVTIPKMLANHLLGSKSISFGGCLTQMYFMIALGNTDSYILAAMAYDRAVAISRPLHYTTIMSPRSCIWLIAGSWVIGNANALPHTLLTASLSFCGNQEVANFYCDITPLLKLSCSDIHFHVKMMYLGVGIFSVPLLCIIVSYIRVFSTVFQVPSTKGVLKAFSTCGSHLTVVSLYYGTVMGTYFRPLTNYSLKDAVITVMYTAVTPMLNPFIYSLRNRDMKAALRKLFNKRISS

pEC50 (OR5AN1)	pEC50 (OR1A1)	Structure (SMILES)
6.54		C[C@@H]1CCCCCCCCCCCCC(=O)C1 [muscone]
	6.41	CCCCCC(=O)C(C)C(C)=O (centres unmarked) [3-methyl-2,4-nonanedione]
